# Source: patent EP0550903A1, “Quinolone- and naphthyridone carboxylic acid derivatives as antibacterial agents” (BAYER AG, priority 1992, dated 1993)
# Read-outs that look alike come from different tables or passages of the source.
# Experiments:
# Staphylococcus aureus = assay: Efficacy in Staph. aureus infection of the mouse; type: in vivo, Maus; conditions: mouse infected with Staphylococcus aureus
# Bacteroides fragilis = assay: MIC, agar dilution test (Multipoint-Inokulator Denley, Isosensitest-Agar); type: cell-based
# Clostridium perfringens = assay: microbe, parasite or virus in culture; type: cell-based; conditions: read-out: MHK-Werte
# Bact. thetaiotaomicron = assay: MIC, agar dilution test (Multipoint-Inokulator Denley, Isosensitest-Agar); type: cell-based; conditions: Bacteroides thetaiotaomicron, DSM2079, Stamm DSM 2079, read-out: MHK-Werte
# [1] = DSM2151, Stamm DSM 2151, Isosensitest-Agar, read-out: MHK-Werte
# [2] = Stamm ES 25, Isosensitest-Agar, read-out: MHK-Werte
smiles,measurement,setting,value
"CC(=O)CCN1CCO[C@H]2CN(c3c(F)cc4c(=O)c(C(=O)O)cn(C5CC5)c4c3F)C[C@H]21 (racemic) [Beispiel 31, 1-Cyclopropyl-6,8-difluor-1,4-dihydro-4-oxo-7-(cis-5-[3-oxo-1-butyl]-2-oxa-5,8-diazabicyclo[4.3.0]non-8-yl)-3-chinolincarbonsäure]",Wirksamkeit in der Staph. aureus-Infektion an der Maus,Staphylococcus aureus; p.o.,10 mg/kg
same,Wirksamkeit in der Staph. aureus-Infektion an der Maus,Staphylococcus aureus; s.c.,10 mg/kg
CN1CCC2CN(c3c(F)cc4c(=O)c(C(=O)O)cn(C5CC5)c4c3Cl)CC21 (stereo not shown) [B],MIC,Bacteroides fragilis; [1],0.5 µg/mL
same,MIC,Bacteroides fragilis; [2],1 µg/mL
same,MIC,Clostridium perfringens,0.5 µg/mL
same,MIC,Bact. thetaiotaomicron,2 µg/mL
"CC(=O)CCN1CCC[C@H]2CN(c3c(F)cc4c(=O)c(C(=O)O)cn(C5CC5)c4c3F)C[C@H]21 [Beispiel 27, 1-Cyclopropyl-6,8-difluor-1,4-dihydro-4-oxo-7-([S,S]-2-[3-oxo-1-butyl]-2,8-diazabicyclo[4.3.0]non-8-yl)-3-chinolincarbonsäure]",Wirksamkeit in der Staph. aureus-Infektion an der Maus,Staphylococcus aureus; p.o.,10 mg/kg
same,Wirksamkeit in der Staph. aureus-Infektion an der Maus,Staphylococcus aureus; s.c.,"2,5 mg/kg"
"O=C(O)c1cn(C2CC2)c2c(Cl)c(N3C[C@@H]4CCCN[C@@H]4C3)c(F)cc2c1=O [A, 8-Chlor-1-cyclopropyl-7-([S,S]-2,8-diazabicyclo[4.3.0]non-8-yl)-6-fluor-1,4-dihydro-4-oxo-3-chinolincarbonsäure]",MIC,Bacteroides fragilis; [1],0.25 µg/mL
same,MIC,Bacteroides fragilis; [2],0.25 µg/mL
same,MIC,Bact. thetaiotaomicron,0.5 µg/mL
"CC(=O)CCN1CCC[C@H]2CN(c3c(F)cc4c(=O)c(C(=O)O)cn(C5CC5)c4c3Cl)C[C@H]21 [Beispiel 29A, 8-Chlor-1-cyclopropyl-6-fluor-1,4-dihydro-4-oxo-7-([S,S]-2-[3-oxo-1-butyl]-2,8-diazabicyclo[4.3.0]non-8-yl)-3-chinolincarbonsäure]",Wirksamkeit in der Staph. aureus-Infektion an der Maus,Staphylococcus aureus; p.o.,5 mg/kg
same,Wirksamkeit in der Staph. aureus-Infektion an der Maus,Staphylococcus aureus; s.c.,5 mg/kg
"N#CCCN1CCC[C@H]2CN(c3c(F)cc4c(=O)c(C(=O)O)cn(C5CC5)c4c3Cl)C[C@H]21 [Beispiel 33, 8-Chlor-7-([S,S]-2-[2-cyanoethyl]-2,8-diazabicyclo[4.3.0]non-8-yl)-1-cyclopropyl-6-fluor-1,4-dihydro-4-oxo-3-chinolincarbonsäure]",Wirksamkeit in der Staph. aureus-Infektion an der Maus,Staphylococcus aureus; p.o.,10 mg/kg
same,Wirksamkeit in der Staph. aureus-Infektion an der Maus,Staphylococcus aureus; s.c.,5 mg/kg
O=C(O)c1cn(C2CC2)c2cc(N3CCNCC3)c(F)cc2c1=O [Ciprofloxacin],MIC,"Bacteroides fragilis; DSM2151, read-out: MHK-Werte",4 µg/mL
same,MIC,Bacteroides fragilis; read-out: MHK-Werte,8 µg/mL
same,Wirksamkeit in der Staph. aureus-Infektion an der Maus,Staphylococcus aureus; p.o.,80 mg/kg
same,Wirksamkeit in der Staph. aureus-Infektion an der Maus,Staphylococcus aureus; s.c.,80 mg/kg
same,MIC,Bact. thetaiotaomicron,8 µg/mL
"COC(=O)C=C(C(=O)OC)N1CCC[C@H]2CN(c3c(F)cc4c(=O)c(C(=O)O)cn(C5CC5)c4c3Cl)C[C@H]21 [Beispiel 35, 8-Chlor-1-cyclopropyl-7-[2-(1,2-bis-methoxycarbonyl-vinyl)-1S,6S-2,8-diazabicyclo[4.3.0]non-8-yl]-6-fluor-1,4-dihydro-4-oxo-3-chinolincarbonsäure]",Wirksamkeit in der Staph. aureus-Infektion an der Maus,Staphylococcus aureus; p.o.,"2,5 mg/kg"
same,Wirksamkeit in der Staph. aureus-Infektion an der Maus,Staphylococcus aureus; s.c.,"2,5 mg/kg"
